Laboratory results as given in PubChem BioAssay AID2060626 (Molecular Pharmacology Branch, DTP, NCI, 2025).

Test system: 168753-222-R-J1-PDC complex spheroid viability
Experiment: Anticancer human tumor 168753-222-R-J1-PDC patient-derived bladder carcinoma cell line growth inhibition [CLK]
Details: for IC50: curve of first compound; for viability, T/C: stronger effect = lower value
Description: A high-throughput screen of multi-cell type tumor spheroids was designed to identify active combinations of […] and targeted small molecules. Complex spheroids include a stromal component modeled by human endothelial cells (HUVEC) and fibroblasts modeled by human mesenchymal stem cells (MSCs). The concentration ranges selected for each drug and investigational agent were based upon clinically achievable concentrations if the clinical Cmax of the agent was known.
Compounds. The drugs and investigational agents: cirtuvivint (SM08502; NSC835563), CC-671 (NSC850746), vemurafenib (NSC761431), tapotoclax (NSC804041), sotorasib (NSC818433), adagrasib (NSC831453), MRTX-1133 (NSC836407), BAY2416964 (NSC825713), copanlisib (NSC816437), inavolisib (NSC800729), abemaciclib (NSC768073), osimertinib (NSC779217), entinostat (NSC756642), eltanexor (KPT-8602, NSC794443), venetoclax (NSC766270), ceralasertib (NSC777638), bortezomib (NSC756655), olaparib (NSC753686), talazoparib (NSC767125), alisertib (NSC759677), peposertib (NSC802822), gemcitabine (NSC613327), 5-fluorouracil (NSC19893), SN-38 (NSC673596), oxaliplatin (NSC266046), paclitaxel (NSC125973), and doxorubicin (NSC123127), were obtained from the National Cancer Institute (NCI) Developmental Therapeutics Program Chemical Repository. The FDA-approved anticancer drug set is available from the Developmental Therapeutics Program at https://dtp.cancer.gov/organization/dscb/obtaining/available plates.htm. […] The stock solutions were prepared in dimethyl sulfoxide (DMSO, Sigma-Aldrich, St. Louis, MO, cat. D2650), except for the platinum complexes which were prepared in saline (Quality Biological, Gaithersburg, MD, cat. 114-055-101), at 800-fold the tested concentration and stored at -70 degrees C prior to their use. All drugs and investigational agents were tested over a range starting from a high concentration at or near the clinical Cmax and decreasing in half-log increments. If the clinical Cmax for an agent had not been determined, the highest concentration tested was 10 microM.
Cell Culture. All cells were maintained in an incubator at 37 degrees C and 5% CO2 with 95% humidity. The PDC lines were cultured according to standard operating procedures established by the NCI PDMR. Briefly, all PDCs were thawed and cultured in Matrigel-coated flasks prepared with a working solution of 1X Ham's F-12 nutrient mix, without supplementation (Invitrogen, Waltham, MA, cat. 11765054), 100 U/mL penicillin-streptomycin (Invitrogen, cat. 15140122), and 2.5% Matrigel (Corning Inc., Corning, NY, cat. 354248) for the first three passages. The 947758-054-R-J2-PDC line was cultured in 6B/Colon 1A media, which includes advanced DMEM/F-12 (Thermo Fisher Scientific, cat. 12634028), 10 mM HEPES (Thermo Fisher Scientific, cat. 15630080), 1X GlutaMAX supplement (Thermo Fisher Scientific, cat. 35050061), 0.1 mg/mL primocin (InvivoGen, cat. ant-pm-2), 10% defined fetal bovine serum, heat inactivated (HyClone Laboratories Inc., cat. SH30070.03HI), 1.25 mM N-Acetyl-L-cysteine (Sigma-Aldrich, cat. A9165), 10 mM nicotinamide (Sigma-Aldrich, cat. N0636), 1X B-27 supplement (Thermo Fisher Scientific, cat. 17504044), 1X N-2 supplement (Thermo Fisher Scientific, cat. 17502048), and 10 microM Y-27632 dihydrochloride (Tocris Bioscience, cat. 1254). The 876862-298-R-J1-PDC was cultured in 6E media, which includes all 6B/Colon 1A media components plus 50% L-WRN conditioned media (ATCC, cat. CRL-3276), 50 ng/mL recombinant human EGF recombinant protein (hEGF; Thermo Fisher Scientific, cat. PHG0311), 10 ng/mL recombinant human fibroblast growth factor 10 (hGFG-10; PeproTech, cat. 100-26), 1 ng/mL recombinant human fibroblast growth factor 2 (hFGF-2; PeproTech, cat. 100-18B), and 1 µM prostaglandin E2 (PGE2; Tocris, cat. 2296). The 227483-062-R1-J1-PDC line was cultured in Panc media, containing all 6E components except hFGF-2, with the addition of 500 nM SB-431542 (Selleckchem, cat. S1067) and 10 nM gastrin (Tocris, cat. 3006). […]
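Also: viability measured after seven days of drug exposure.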
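For viability, T/C in this document: luminescence signal used as surrogate for viable cell amount; 100% = DMSO vehicle control wells.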

C#Cc1c(F)ccc2cc(O)cc(-c3ncc4c(N5CC6CCC(C5)N6)nc(OCC56CCCN5CC(F)C6)nc4c3F)c12 (configuration not stated) + CN1CCN(c2cc(C(=O)Nc3cc4cc(-c5cnn(C)c5)ccc4cn3)ccn2)CC1
IC50 (second compound 0.0316 µM): > 10 µM
IC50 (second compound 0.1 µM): 1.85 µM
IC50 (second compound 0.316 µM): < 0.0316 µM
IC50 (second compound 1 µM): < 0.0316 µM
IC50 (second compound 3.16 µM): < 0.0316 µM
IC50 (second compound 10 µM): < 0.0316 µM
viability, T/C (second compound 0.0316 µM, first compound 0.0316 µM): 105%
viability, T/C (second compound 0.0316 µM, first compound 0.1 µM): 107%
viability, T/C (second compound 0.0316 µM, first compound 0.316 µM): 101%
viability, T/C (second compound 0.0316 µM, first compound 1 µM): 103%
viability, T/C (second compound 0.0316 µM, first compound 3.16 µM): 96.4%
viability, T/C (second compound 0.0316 µM, first compound 10 µM): 70.3%
viability, T/C (second compound 0.1 µM, first compound 0.0316 µM): 77.7%
viability, T/C (second compound 0.1 µM, first compound 0.1 µM): 64.7%
viability, T/C (second compound 0.1 µM, first compound 0.316 µM): 63.9%
viability, T/C (second compound 0.1 µM, first compound 1 µM): 64.2%
viability, T/C (second compound 0.1 µM, first compound 3.16 µM): 37.4%
viability, T/C (second compound 0.1 µM, first compound 10 µM): 38%
viability, T/C (second compound 0.316 µM, first compound 0.0316 µM): 14.7%
viability, T/C (second compound 0.316 µM, first compound 0.1 µM): 14.6%
viability, T/C (second compound 0.316 µM, first compound 0.316 µM): 11.8%
viability, T/C (second compound 0.316 µM, first compound 1 µM): 12%
viability, T/C (second compound 0.316 µM, first compound 3.16 µM): 12.1%
viability, T/C (second compound 0.316 µM, first compound 10 µM): 7.39%
viability, T/C (second compound 1 µM, first compound 0.0316 µM): 0.54%
viability, T/C (second compound 1 µM, first compound 0.1 µM): 0.65%
viability, T/C (second compound 1 µM, first compound 0.316 µM): 1.92%
viability, T/C (second compound 1 µM, first compound 1 µM): 0.88%
viability, T/C (second compound 1 µM, first compound 3.16 µM): 0.75%
viability, T/C (second compound 1 µM, first compound 10 µM): 0.34%
viability, T/C (second compound 3.16 µM, first compound 0.0316 µM): 2.41%
viability, T/C (second compound 3.16 µM, first compound 0.1 µM): 0.59%
viability, T/C (second compound 3.16 µM, first compound 0.316 µM): 1.48%
viability, T/C (second compound 3.16 µM, first compound 1 µM): 0.13%
viability, T/C (second compound 3.16 µM, first compound 3.16 µM): 0.39%
viability, T/C (second compound 3.16 µM, first compound 10 µM): 0.22%
viability, T/C (second compound 10 µM, first compound 0.0316 µM): 0.18%
viability, T/C (second compound 10 µM, first compound 0.1 µM): 0.32%
viability, T/C (second compound 10 µM, first compound 0.316 µM): 0.39%
viability, T/C (second compound 10 µM, first compound 1 µM): 0.2%
viability, T/C (second compound 10 µM, first compound 3.16 µM): 0.57%
viability, T/C (second compound 10 µM, first compound 10 µM): 3.73%
